Laboratory results as given in patent US5688640A, “Methods of screening of effectors of endothelin converting enzyme-1” (Board of Regents, The University of Texas System, priority 1994, dated 1997).

What was measured:
[1] = ET-1(1-20) and ET-1(1-22) relative to authentic ET-1(1-21); cited from earlier work
NEP = conditions: cited from earlier work
ECE-1 [2] = biological target: T1, ECE-1 (Bos taurus, UniProt P42891); experiment: Secretion of big and mature ET-1 by preproET-1-transfected CHO/ECE-1 cells (conversion of endogenous big ET-1); assay type: cell-based, bovine; conditions: preproET-1-transfected CHO/ECE-1 cells
T1 construct: The entire coding regions from bovine ECE-1; made in house
T1 sequence (P42891 with tags, fused parts or gaps A87G/A695G limits assumed): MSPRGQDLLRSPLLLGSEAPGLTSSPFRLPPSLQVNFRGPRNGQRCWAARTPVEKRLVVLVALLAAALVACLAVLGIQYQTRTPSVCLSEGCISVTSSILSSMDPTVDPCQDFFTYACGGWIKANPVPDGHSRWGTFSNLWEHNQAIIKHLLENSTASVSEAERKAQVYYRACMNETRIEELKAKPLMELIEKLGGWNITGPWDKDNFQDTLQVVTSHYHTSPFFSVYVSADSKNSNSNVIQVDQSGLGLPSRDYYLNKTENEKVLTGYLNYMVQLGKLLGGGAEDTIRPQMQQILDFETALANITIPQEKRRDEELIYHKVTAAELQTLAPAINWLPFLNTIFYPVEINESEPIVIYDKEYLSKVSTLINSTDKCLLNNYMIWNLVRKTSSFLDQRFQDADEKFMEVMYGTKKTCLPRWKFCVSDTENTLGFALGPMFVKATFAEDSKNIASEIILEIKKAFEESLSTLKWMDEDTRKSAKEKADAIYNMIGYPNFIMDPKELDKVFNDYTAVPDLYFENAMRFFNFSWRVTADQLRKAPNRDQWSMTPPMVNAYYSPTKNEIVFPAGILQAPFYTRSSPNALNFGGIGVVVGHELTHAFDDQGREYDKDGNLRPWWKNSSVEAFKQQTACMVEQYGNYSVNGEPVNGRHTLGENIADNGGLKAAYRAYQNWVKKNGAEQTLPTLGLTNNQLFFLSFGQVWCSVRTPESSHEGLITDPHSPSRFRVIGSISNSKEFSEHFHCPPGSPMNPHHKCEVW
Description: Transient transfection of the preproET-1 cDNA was performed by the DEAE-dextran method as described (Sakurai et al., 1990). Twelve hours after transfection, cells were refed with fresh medium with or without ECE inhibitors. The medium was conditioned for an additional 12 hours and directly subjected to EIA for mature and big ET-1 (Suzuki et al., 1990; Suzuki et al., 1989). For the Ca^2+ transient bioassay (see below), Phenol Red-free CHO-SFM medium (Gibco/BRL) without serum was used in order to avoid artefacts induced by serum and the dye.
To examine whether the expressed ECE-1 can convert big ET-1 in intact cells, paired cultures of CHO/ECE-1 cells and untransfected CHO cells were transiently transfected with the preproET-1 construct. After the transient transfection, the amounts of mature and big ET-1 secreted into the medium were measured by EIA. […] The functional authenticity of the immunoreactive mature peptide produced from the double-transfected cells was examined with a bioassay system that uses another line of CHO cells expressing human ETA receptors as reporter cells. […] The cells were loaded with the Ca^2+ indicator Fura-2/AM, and directly challenged with serum-free, Phenol Red-free culture supernatants from the aforementioned double-transfection protocols. […] Next the supernatants from the preproET-1-transfected CHO/ECE-1 cells were added, so that the final concentration of ET-1 as measured by EIA was ≈20 pM.

ECE-1 [3] = biological target: T1, ECE-1; experiment: Reconstitution of ECE-1 activity by metal ions after EDTA stripping; assay type: biochemical, bovine; conditions: ZnCl2 300 μM after 30 μM EDTA
Description: FIG. 2D. […] After incubating on ice for 15 min, the designated concentrations of metal ions were added as chloride salt and ECE activity was measured.
(§1) Reaction mixtures for ECE assay (50 μl) contained 0.1M sodium phosphate buffer (pH 6.8), 0.5M NaCl, 0.1 μM human big ET-1(1-38) and enzyme fraction. For some studies, the reactions were preincubated at 37° C. with various protease inhibitors for 15 minutes prior to the addition of big ET-1. The reactions were incubated at 37° C. for 30 min in siliconized 0.5-ml microcentrifuge tubes. […] Duplicate assay wells were used for each enzyme reaction. Protein concentration was determined by the Bradford method (Bio-Rad) using IgG as standard.
Approximately 3,000-cm^2 confluent monolayers of cells (≈10^8 cells) were rinsed twice with ice-cold PBS. Cells were scraped off by a rubber policeman in ice-cold PBS, and collected by centrifugation. All subsequent procedures were performed at 4° C. Cells were resuspended in 10×volume of buffer B (20 mM Tris-HCl (pH 7.4)/20 μM pepstatin A/1 mM PMSF/1 MM pCMS/250 mM sucrose), and homogenized by a 30-ml Teflon homogenizer with the piston rotating at 300 r.p.m. […]

ECE-1 [4] = biological target: T1, ECE-1; experiment: pH profile of ECE-1 activity in solubilized CHO/ECE-1 membranes; assay type: biochemical, bovine
Description: FIG. 2C. pH profile of ECE-1 activity expressed in solubilized CHO/ECE-1 membranes.
as §1

## mature ET-1: 21-residue mature peptide; human ET-1(1-21) obtained from American Peptides
[1]
  vasoconstrictor/biological activity (in words): the most potent vasoconstrictor substance known
NEP
  degradation by NEP (in words): rapidly degrades
ECE-1 [2]
  concentration secreted in culture supernatant: 241 pM

## [Cl-].[Cl-].[Zn+2] [ZnCl2]
ECE-1 [3]
  reconstituted ECE activity, of the original levels: up to 110%

B1: ECE-1: novel 758-amino acid polypeptide, bovine endothelin converting enzyme-1 (protein, UniProt P42891 1-754, looked up)
chain: MMSTYKRATLDEEDLVDSLSESDVYPNHLQVNFRGPRNGQRCWAARTPVEKRLVVLVALLAAALVACLAVLGIQYQTRTPSVCLSEACISVTSSILSSMDPTVDPCQDFFTYACGGWIKANPVPDGHSRWGTFSNLWEHNQAIIKHLLENSTASVSEAERKAQVYYRACMNETRIEELKAKPLMELIEKLGGWNITGPWDKDNFQDTLQVVTSHYHTSPFFSVYVSADSKNSNSNVIQVDQSGLGLPSRDYYLNKTENEKVLTGYLNYMVQLGKLLGGGAEDTIRPQMQQILDFETALANITIPQEKRRDEELIYHKVTAAELQTLAPAINWLPFLNTIFYPVEINESEPIVIYDKEYLSKVSTLINSTDKCLLNNYMIWNLVRKTSSFLDQRFQDADEKFMEVMYGTKKTCLPRWKFCVSDTENTLGFALGPMFVKATFAEDSKNIASEIILEIKKAFEESLSTLKWMDEDTRKSAKEKADAIYNMIGYPNFIMDPKELDKVFNDYTAVPDLYFENAMRFFNFSWRVTADQLRKAPNRDQWSMTPPMVNAYYSPTKNEIVFPAGILQAPFYTRSSPNALNFGGIGVVVGHELTHAFDDQGREYDKDGNLRPWWKNSSVEAFKQQTACMVEQYGNYSVNGEPVNGRHTLGENIADNGGLKAAYRAYQNWVKKNGAEQTLPTLGLTNNQLFFLSFAQVWCSVRTPESSHEGLITDPHSPSRFRVIGSISNSKEFSEHFHCPPGSPMNPHHKCEVW
modifications: full-length
ECE-1 [4]
  optimal pH of ECE activity: 6.8
